Measured values: US20260242452A1, “METHOD FOR DEGRADING TARGET PROTEIN” (Inter-University Research Institute Corporation Research …, priority 2023, published 2026)

How the values were obtained:
Format in all cases: cell-based, human
[1] = system: endogenous RAS; assay: Expression level of endogenous RAS by Western blotting; settings: 1 μM 5-Ph-IAA, 6 hours; cells expressing OsTIR1 (F74G) and RAS nanobody hybrid adapter
Method: Furthermore, the same experiment was performed using an adapter (KR adapter; hybrid adapter) containing a gene encoding a RAS nanobody (gene sequence of RAS nanobody WT (SEQ ID NO: 14), amino acid sequence of RAS nanobody WT (SEQ ID NO: 15); gene sequence of RAS nanobody KR (SEQ ID NO: 16), amino acid sequence of RAS nanobody KR (SEQ ID NO: 17)) (see the left part of FIG. 11). The cells were treated with 1 μM 5-Ph-IAA for 6 hours, and the expression level of endogenous RAS was confirmed by Western blotting. The results are shown in the right part of […].

[2] = system: SMC6-GFP; assay: Degradation of SMC6-GFP, GFP fluorescence quantified by flow cytometry (FACS); settings: 1 μM 5-Ph-IAA, 4 hours; HCT116 cells expressing SMC6-GFP, OsTIR1 (F74G) and GFP nanobody adapter
Method: (§1) As an mAID-single-chain antibody (nanobody) gene (also referred to as an adapter), a wild-type (WT adapter) and a ubiquitination-resistant mutant (KR adapter) in which all lysine residues (K) in the amino acid sequence encoded by the mAID-single-chain antibody (nanobody) gene were substituted with arginine residues (R) were prepared.
(§2) A co-expression vector in which the OsTIR1 (F74G) gene and the WT adapter or the KR adapter were connected by a self-cleaving sequence P2A gene was prepared (see FIG. 2).
(§3) In the chromosome of HCT116 cells, DNA encoding GFP was introduced into the downstream of DNA encoding each of the nuclear protein SMC6 and the cytoplasmic protein DHC1 by transposon, and cells expressing SMC6-GFP and cells expressing DHC1-GFP were prepared.
(§4) A co-expression vector containing an adapter (WT adapter; KR adapter) that contains a gene encoding a GFP nanobody (GFP nanobody WT gene sequence (SEQ ID NO: 9); GFP nanobody KR gene sequence (SEQ ID NO: 10)), together with the OsTIR1 (F74G) gene, was introduced into the cells expressing each SMC6-GFP and DHC1-GFP. […]
(§5) These cells were treated with 1 μM 5-Ph-IAA for 4 hours, and the GFP fluorescence in the cells was quantified using flow cytometry. […]
as §5

[3] = system: endogenous p53; assay: Expression level of endogenous p53 by Western blotting; settings: 1 μM 5-Ph-IAA, 6 hours; cells expressing OsTIR1 (F74G) and p53 nanobody KR adapter
Method: (§6) Furthermore, the same experiment was performed using an adapter (WT adapter; KR adapter) containing a gene encoding a p53 nanobody (p53 nanobody WT gene sequence (SEQ ID NO: 11); p53 nanobody KR gene sequence (SEQ ID NO: 12)) (see the left part of FIG. 6). The cells were treated with 1 μM 5-Ph-IAA for 6 hours, and the expression level of endogenous p53 was confirmed by Western blotting. The results are shown in the right part of FIG. 6.
as §6, with “adapter; KR adapter; hybrid adapter) containing” for “adapter; KR adapter) containing”, “of FIG. 10). The cells” for “of FIG. 6). The cells”

[4] = system: DHC1-GFP; assay: Degradation of DHC1-GFP, GFP fluorescence quantified by flow cytometry (FACS); settings: 1 μM 5-Ph-IAA, 4 hours; HCT116 cells expressing DHC1-GFP, OsTIR1 (F74G) and GFP nanobody adapter
Method: as §1, §2, §3, §4, §5, §5

[5] = system: RAD21-GFP; assay: Degradation of RAD21-GFP, GFP fluorescence quantified by flow cytometry (FACS); settings: 1 μM 5-Ph-IAA, 4 hours; HCT116 cells expressing RAD21-GFP, OsTIR1 (F74G) and GFP nanobody adapter
Method: As the mAID-single-chain antibody (nanobody) gene, in addition to the WT adapter and the KR adapter, a hybrid adapter in which all lysine residues (K) in the amino acid sequence encoded by the mAID gene were substituted with arginine residues (R) was prepared. As in Example 1, a co-expression vector in which the OsTIR1 (F74G) gene and the WT adapter, the KR adapter, or the hybrid adapter were connected by a self-cleaving sequence P2A gene was prepared (see FIG. 7).
In the chromosome of HCT116 cells, DNA encoding GFP was added to the downstream of DNA encoding each of the nuclear protein SMC6, the nuclear protein RAD21, and the cytoplasmic protein DHC1 by genome editing, and cells expressing SMC6-GFP and cells expressing DHC1-GFP were prepared (see FIG. 8).
A co-expression vector containing an adapter (WT adapter; KR adapter; hybrid adapter) that contains a gene encoding a GFP nanobody (GFP nanobody WT (SEQ ID NO: 9); GFP nanobody KR (SEQ ID NO: 10)), together with the OsTIR1 (F74G) gene, was introduced into the cells expressing each SMC6-GFP, RAD21-GFP, and DHC1-GFP by transposon. As a control, a plasmid in which only OsTIR1 (F74G) and mAID were expressed was introduced (see FIG. 8).
as §5

O=C(O)Cc1c[nH]c2ccc(-c3ccccc3)cc12 [Formula 5-Ph-IAA, 5-Ph-IAA]
5-Ph-IAA-dependent degradation of endogenous RAS (Western blotting) [1]: could be efficiently degraded | 5-Ph-IAA-dependent degradation of target protein SMC6-GFP (GFP fluorescence) [2]: could be degraded | 5-Ph-IAA-dependent degradation of endogenous p53 (Western blotting) [3]: could be degraded | 5-Ph-IAA-dependent degradation of target protein DHC1-GFP (GFP fluorescence) [4]: could be degraded | 5-Ph-IAA-dependent degradation of target protein RAD21-GFP (GFP fluorescence) [5]: could be degraded
